Test results: ChEMBL document CHEMBL1154822, “Synthesis and antiproliferative activity of 7-azaindirubin-3'-oxime, a 7-aza isostere of the natural indirubin pharmacophore” (J Nat Prod, 2009)

Key:
Format in all cases: functional
NCI/ADR-RES [1] = assay: Cytotoxicity against human NCI/ADR-RES cells assessed as cell growth at 10 uM after 1 to 11 days by MTT assay; details: read-out: Activity
MOLT-4 [2] = assay: Cytotoxicity against human MOLT4 cells assessed as cell growth at 100 uM after 1 to 11 days by MTT assay; details: read-out: Activity
SN12C [3] = assay: Cytotoxicity against human SN12C cells assessed as cell growth at 1 uM after 1 to 11 days by MTT assay; details: read-out: Activity
SF-539 [4] = assay: Cytotoxicity against human SF539 cells assessed as cell growth at 1 uM after 1 to 11 days by MTT assay; details: read-out: Activity
786-0 = assay: Cytotoxicity against human 786-0 cells assessed as cell growth at 0.1 uM after 1 to 11 days by MTT assay; details: read-out: Activity
MDA-MB-468 [5] = assay: Cytotoxicity against human MDA-MB-468 cells assessed as cell growth at 0.1 uM after 1 to 11 days by MTT assay; details: read-out: Activity
CCRF-CEM = assay: Cytotoxicity against human CCRF-CEM cells after 1 to 11 days by MTT assay
OVCAR-3 = assay: Cytotoxicity against human OVCAR-3 cells assessed as cell growth at 10 uM after 1 to 11 days by MTT assay; details: read-out: Activity
SF-268 = assay: Cytotoxicity against human SF268 cells assessed as cell growth at 100 uM after 1 to 11 days by MTT assay; details: read-out: Activity
SF-539 [6] = assay: Cytotoxicity against human SF539 cells assessed as cell growth at 0.1 uM after 1 to 11 days by MTT assay; details: read-out: Activity
HL-60(TB) [7] = assay: Cytotoxicity against human HL-60(TB) cells assessed as cell growth at 0.1 uM after 1 to 11 days by MTT assay; details: read-out: Activity
UACC-257 = assay: Cytotoxicity against human UACC257 cells assessed as cell growth at 10 uM after 1 to 11 days by MTT assay; details: read-out: Activity
SN12C [8] = assay: Cytotoxicity against human SN12C cells assessed as cell growth at 100 uM after 1 to 11 days by MTT assay; details: read-out: Activity
Malme-3M = assay: Cytotoxicity against human MALME-3M cells assessed as cell growth at 0.1 uM after 1 to 11 days by MTT assay; details: read-out: Activity
IGROV-1 [9] = assay: Cytotoxicity against human IGROV1 cells assessed as cell growth at 1 uM after 1 to 11 days by MTT assay; details: read-out: Activity
LOX IMVI = assay: Cytotoxicity against human LOXIMVI cells assessed as cell growth at 10 uM after 1 to 11 days by MTT assay; details: read-out: Activity
RPMI-8226 = assay: Cytotoxicity against human RPMI8226 cells assessed as cell growth at 10 uM after 1 to 11 days by MTT assay; details: read-out: Activity
IGROV-1 [10] = assay: Cytotoxicity against human IGROV1 cells assessed as cell growth at 0.1 uM after 1 to 11 days by MTT assay; details: read-out: Activity
MDA-MB-468 [11] = assay: Cytotoxicity against human MDA-MB-468 cells assessed as cell growth at 100 uM after 1 to 11 days by MTT assay; details: read-out: Activity
HCT-15 = assay: Cytotoxicity against human HCT15 cells after 1 to 11 days by MTT assay
UACC-62 = assay: Cytotoxicity against human UACC62 cells assessed as cell growth at 1 uM after 1 to 11 days by MTT assay; details: read-out: Activity
[12] = Cytotoxicity against human Hs 578T cells assessed as cell growth at 1 mM after 1 to 11 days by MTT assay; details: read-out: Activity
DU-145 = assay: Cytotoxicity against human DU145 cells assessed as cell growth at 10 uM after 1 to 11 days by MTT assay; details: read-out: Activity
NCI-H460 = assay: Cytotoxicity against human NCI-H460 cells assessed as cell growth at 100 uM after 1 to 11 days by MTT assay; details: read-out: Activity
NCI-H23 = assay: Cytotoxicity against human NCI-H23 cells assessed as cell growth at 10 uM after 1 to 11 days by MTT assay; details: read-out: Activity
M14 [13] = assay: Cytotoxicity against human M14 cells assessed as cell growth at 1 mM after 1 to 11 days by MTT assay; details: read-out: Activity
OVCAR-5 = assay: Cytotoxicity against human OVCAR5 cells assessed as cell growth at 1 mM after 1 to 11 days by MTT assay; details: read-out: Activity
IGROV-1 [14] = assay: Cytotoxicity against human IGROV1 cells assessed as cell growth at 100 uM after 1 to 11 days by MTT assay; details: read-out: Activity
HOP-62 = assay: Cytotoxicity against human HOP62 cells assessed as cell growth at 1 uM after 1 to 11 days by MTT assay; details: read-out: Activity
NCI/ADR-RES [15] = assay: Cytotoxicity against human NCI/ADR-RES cells assessed as cell growth at 1 uM after 1 to 11 days by MTT assay; details: read-out: Activity
HCC 2998 = assay: Cytotoxicity against human HCC2998 cells after 1 to 11 days by MTT assay
MDA-MB-231 [16] = assay: Cytotoxicity against human MDA-MB-231 cells after 1 to 11 days by MTT assay
SF-539 [17] = assay: Cytotoxicity against human SF539 cells assessed as cell growth at 1 mM after 1 to 11 days by MTT assay; details: read-out: Activity
SN12C [18] = assay: Cytotoxicity against human SN12C cells after 1 to 11 days by MTT assay
SR = assay: Cytotoxicity against human SR cells assessed as cell growth at 10 uM after 1 to 11 days by MTT assay; details: read-out: Activity
ACHN = assay: Cytotoxicity against human ACHN cells assessed as cell growth at 10 uM after 1 to 11 days by MTT assay; details: read-out: Activity
HL-60(TB) [19] = assay: Cytotoxicity against human HL-60(TB) cells assessed as cell growth at 100 uM after 1 to 11 days by MTT assay; details: read-out: Activity
UO-31 = assay: Cytotoxicity against human UO31 cells assessed as cell growth at 10 uM after 1 to 11 days by MTT assay; details: read-out: Activity
KM12 = assay: Cytotoxicity against human KM12 cells assessed as cell growth at 100 uM after 1 to 11 days by MTT assay; details: read-out: Activity
MOLT-4 [20] = assay: Cytotoxicity against human MOLT4 cells assessed as cell growth at 1 mM after 1 to 11 days by MTT assay; details: read-out: Activity
M14 [21] = assay: Cytotoxicity against human M14 cells assessed as cell growth at 0.1 uM after 1 to 11 days by MTT assay; details: read-out: Activity
A549 = assay: Cytotoxicity against human A549 cells assessed as cell growth at 0.1 uM after 1 to 11 days by MTT assay; details: read-out: Activity
MDA-MB-231 [22] = assay: Cytotoxicity against human MDA-MB-231 cells assessed as cell growth at 0.1 uM after 1 to 11 days by MTT assay; details: read-out: Activity
OVCAR-8 = assay: Cytotoxicity against human OVCAR8 cells assessed as cell growth at 1 mM after 1 to 11 days by MTT assay; details: read-out: Activity
[23] = read-out: LC50 (the source's name)

Structure (SMILES): O=C1Nc2ncccc2/C1=C1/Nc2ccccc2/C1=N\O
- growth at 10 µM (NCI/ADR-RES [1]): 99%
- growth at 100 µM (MOLT-4 [2]): 26%
- growth at 1 µM (SN12C [3]): 89%
- growth at 1 µM (SF-539 [4]): 91%
- growth at 0.1 µM (786-0): 119%
- growth at 0.1 µM (MDA-MB-468 [5]): 77%
- GI50 (CCRF-CEM): 5.07 µM
- TGI (CCRF-CEM): > 100 µM
- CC50 (CCRF-CEM; [23]): > 100 µM
- growth at 10 µM (OVCAR-3): 80%
- growth at 100 µM (SF-268): 54%
- growth at 0.1 µM (SF-539 [6]): 89%
- growth at 0.1 µM (HL-60(TB) [7]): 103%
- growth at 10 µM (UACC-257): 114%
- growth at 100 µM (SN12C [8]): 37%
- growth at 0.1 µM (Malme-3M): 94%
- growth at 1 µM (IGROV-1 [9]): 84%
- growth at 10 µM (LOX IMVI): 86%
- growth at 10 µM (RPMI-8226): 68%
- growth at 0.1 µM (IGROV-1 [10]): 102%
- growth at 100 µM (MDA-MB-468 [11]): 18%
- GI50 (HCT-15): 3.67 µM
- TGI (HCT-15): > 100 µM
- CC50 (HCT-15; [23]): > 100 µM
- growth at 1 µM (UACC-62): 88%
- growth at 1000 µM [12]: 31%
- growth at 10 µM (DU-145): 84%
- growth at 100 µM (NCI-H460): 41%
- growth at 10 µM (NCI-H23): 83%
- growth at 1000 µM (M14 [13]): 21%
- growth at 1000 µM (OVCAR-5): 49%
- growth at 100 µM (IGROV-1 [14]): 13%
- growth at 1 µM (HOP-62): 100%
- growth at 1 µM (NCI/ADR-RES [15]): 100%
- GI50 (HCC 2998): 5.96 µM
- TGI (HCC 2998): > 100 µM
- CC50 (HCC 2998; [23]): > 100 µM
- GI50 (MDA-MB-231 [16]): 5.28 µM
- TGI (MDA-MB-231 [16]): > 100 µM
- CC50 (MDA-MB-231 [16]; [23]): > 100 µM
- growth at 1000 µM (SF-539 [17]): 52%
- GI50 (SN12C [18]): 4.98 µM
- TGI (SN12C [18]): > 100 µM
- CC50 (SN12C [18]; [23]): > 100 µM
- growth at 10 µM (SR): 147%
- growth at 10 µM (ACHN): 72%
- growth at 100 µM (HL-60(TB) [19]): 38%
- growth at 10 µM (UO-31): 62%
- growth at 100 µM (KM12): 6%
- growth at 1000 µM (MOLT-4 [20]): 18%
- growth at 0.1 µM (M14 [21]): 95%
- growth at 0.1 µM (A549): 102%
- growth at 0.1 µM (MDA-MB-231 [22]): 99%
- growth at 1000 µM (OVCAR-8): 52%
